The results in this text go back to US20210127673A1, “HERBICIDES” (SYNGENTA PARTICIPATIONS AG, priority 2016, published 2021).

What all share (format): in vivo
Common to all, as to settings: evaluated after 13 days

Experiment [1] relates to Avena fatua (AVEFA). Kind of experiment: Pre-emergence herbicidal activity, Avena fatua. On the set-up: key: 5=total damage to plant; 0=no damage to plant. Summed up: (§1)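 Pots of seeds were sprayed one day after sowing (pre-emergence) with compound in acetone/water (50:50) plus 0.5% Tween 20, then grown in a glasshouse at 24/16 °C day/night, 14 h light, 65% humidity. Damage scored 0–5 (5 = total damage) after 13 days.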

The test system of experiment [2] is Echinochloa crus-galli (ECHCG). The experiment is described as follows: Pre-emergence herbicidal activity, Echinochloa crus-galli. Summed up: as §1
For experiment [3], the system named is Alopecurus myosuroides (ALOMY). The experiment is described as follows: Post-emergence herbicidal activity, Alopecurus myosuroides. On the set-up: key: 5=total damage to plant; 0=no damage to plant. The procedure, abridged:
(§2)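 Post-em, 8 d plants, pots; acetone:water 1:1 + 0.5% Tween 20 spray; 24/16 °C, 14 h photoperiod, 65% RH; 13 d readout, 0–5 phytotoxicity scale.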

For experiment [4], the system named is Setaria faberi (SETFA). Kind of experiment: Pre-emergence herbicidal activity, Setaria faberi. The procedure, abridged: as §1
Experiment [5] relates to Avena fatua (AVEFA). The experiment is described as follows: Post-emergence herbicidal activity, Avena fatua. The procedure, abridged: as §2
The subject of experiment [6] is Alopecurus myosuroides (ALOMY). The experiment is described as follows: Pre-emergence herbicidal activity, Alopecurus myosuroides. On the set-up: key: 5=total damage to plant; 0=no damage to plant. Summed up:
as §1

The subject of experiment [7] is Triticum aestivium (TRZAW). The experiment is described as follows: Pre-emergence herbicidal activity, Triticum aestivium. On the set-up: key: 5=total damage to plant; 0=no damage to plant. Summed up: as §1
The subject of experiment [8] is Triticum aestivium (TRZAW). The experiment is described as follows: Post-emergence herbicidal activity, Triticum aestivium. On the set-up: key: 5=total damage to plant; 0=no damage to plant. Summed up:
as §2

Experiment [9] deals with Setaria faberi (SETFA). The experiment is described as follows: Post-emergence herbicidal activity, Setaria faberi. On the set-up: key: 5=total damage to plant; 0=no damage to plant. Summed up:
as §2

Experiment [10] concerns Echinochloa crus-galli (ECHCG). The experiment is described as follows: Post-emergence herbicidal activity, Echinochloa crus-galli. Summed up:
as §2

The subject of experiment [11] is Lolium perenne (LOLPE). The experiment is described as follows: Pre-emergence herbicidal activity, Lolium perenne. On the set-up: key: 5=total damage to plant; 0=no damage to plant. Summed up: as §1
The test system of experiment [12] is Lolium perenne (LOLPE). The experiment is described as follows: Post-emergence herbicidal activity, Lolium perenne. The procedure, abridged: as §2

In the case of `CC(C)(C)CNC(=O)Nc1ccc(-c2cncc(F)c2)nc1C(F)(F)F` [Compound B107], the “Control of AVEFA after pre-emergence application (score 0-5)” value in the experiment with Avena fatua (AVEFA) [1] (250 g/ha) is recorded as 1. For the same compound, the “Control of ECHCG after pre-emergence application (score 0-5)” value in [2] (250 g/ha) is listed as 3. Further, the “Control of ALOMY after post-emergence application (score 0-5)” value in [3] (250 g/ha) was 0. Moreover, the “Control of SETFA after pre-emergence application (score 0-5)” value in the experiment with Setaria faberi (SETFA) [4] (250 g/ha) amounted to 4. The “Control of AVEFA after post-emergence application (score 0-5)” value with Avena fatua (AVEFA) [5] (250 g/ha) is recorded as 3. Moreover, the “Control of ALOMY after pre-emergence application (score 0-5)” value in experiment [6] (250 g/ha) is listed as 1. Besides, in [7] (250 g/ha), the “Control of TRAZW after pre-emergence application (score 0-5)” value was 1. Moreover, the “Control of TRAZW after post-emergence application (score 0-5)” value in experiment [8] (250 g/ha) is 0. Moreover, the “Control of SETFA after post-emergence application (score 0-5)” value in the experiment with Setaria faberi (SETFA) [9] (250 g/ha) was determined as 5. The “Control of ECHCG after post-emergence application (score 0-5)” value in [10] (250 g/ha) came out at 3. Moreover, the “Control of LOLPE after pre-emergence application (score 0-5)” value with Lolium perenne (LOLPE) [11] (250 g/ha) was 3. Besides, the “Control of LOLPE after post-emergence application (score 0-5)” value in the experiment with Lolium perenne (LOLPE) [12] (250 g/ha) was found to be 1.
For `O=C(Nc1ccc(-c2cncnc2)nc1C(F)(F)F)N1CCOCC1` [Compound B55], in the experiment on Avena fatua (AVEFA) [1] (1000 g/ha), the “Control of AVEFA after pre-emergence application (score 0-5)” value came out at 1. Further, in [2] (1000 g/ha), the “Control of ECHCG after pre-emergence application (score 0-5)” value is 1. Further, the “Control of ALOMY after post-emergence application (score 0-5)” value in [3] (1000 g/ha) was 0. For the same compound, in the experiment with Setaria faberi (SETFA) [4] (1000 g/ha), the “Control of SETFA after pre-emergence application (score 0-5)” value came to 1. The “Control of AVEFA after post-emergence application (score 0-5)” value in the experiment on Avena fatua (AVEFA) [5] (1000 g/ha) was found to be 2. Also, in [6] (1000 g/ha), the “Control of ALOMY after pre-emergence application (score 0-5)” value is 0. For the same compound, the “Control of TRAZW after pre-emergence application (score 0-5)” value in experiment [7] (1000 g/ha) was 0. The “Control of TRAZW after post-emergence application (score 0-5)” value in [8] (1000 g/ha) turned out to be 0. Moreover, the “Control of SETFA after post-emergence application (score 0-5)” value with Setaria faberi (SETFA) [9] (1000 g/ha) stood at 4. Further, in [10] (1000 g/ha), the “Control of ECHCG after post-emergence application (score 0-5)” value is on record as 3. Further, the “Control of LOLPE after pre-emergence application (score 0-5)” value with Lolium perenne (LOLPE) [11] (1000 g/ha) was 0. Moreover, the “Control of LOLPE after post-emergence application (score 0-5)” value in the experiment on Lolium perenne (LOLPE) [12] (1000 g/ha) came out at 1.
As for `CC(C)(C)OC(=O)Nc1ccc(-c2cncc(C(F)F)c2)nc1C(F)(F)F` [Compound B5], the “Control of AVEFA after pre-emergence application (score 0-5)” value with Avena fatua (AVEFA) [1] (1000 g/ha) was 0. In addition, the “Control of ECHCG after pre-emergence application (score 0-5)” value in experiment [2] (1000 g/ha) is 2. In [3] (1000 g/ha), the “Control of ALOMY after post-emergence application (score 0-5)” value came to 1. For the same compound, the “Control of SETFA after pre-emergence application (score 0-5)” value in the experiment with Setaria faberi (SETFA) [4] (1000 g/ha) is recorded as 4. The “Control of AVEFA after post-emergence application (score 0-5)” value in the experiment with Avena fatua (AVEFA) [5] (1000 g/ha) stood at 1. In addition, the “Control of ALOMY after pre-emergence application (score 0-5)” value in experiment [6] (1000 g/ha) is recorded as 0. Further, the “Control of TRAZW after pre-emergence application (score 0-5)” value in experiment [7] (1000 g/ha) was 0. Besides, in experiment [8] (1000 g/ha), the “Control of TRAZW after post-emergence application (score 0-5)” value came out at 0. In addition, the “Control of SETFA after post-emergence application (score 0-5)” value with Setaria faberi (SETFA) [9] (1000 g/ha) turned out to be 4. Moreover, the “Control of ECHCG after post-emergence application (score 0-5)” value in experiment [10] (1000 g/ha) was 3. Moreover, the “Control of LOLPE after pre-emergence application (score 0-5)” value with Lolium perenne (LOLPE) [11] (1000 g/ha) was determined as 0. Besides, the “Control of LOLPE after post-emergence application (score 0-5)” value in the experiment on Lolium perenne (LOLPE) [12] (1000 g/ha) is on record as 1.
`O=C(NOCC(F)F)Nc1ccc(-c2cncc(F)c2)nc1C(F)(F)F` [Compound B110]: the “Control of AVEFA after pre-emergence application (score 0-5)” value in the experiment with Avena fatua (AVEFA) [1] (1000 g/ha) is 0. Moreover, in experiment [2] (1000 g/ha), the “Control of ECHCG after pre-emergence application (score 0-5)” value was 3. The “Control of ALOMY after post-emergence application (score 0-5)” value in experiment [3] (1000 g/ha) was determined as 0. Besides, the “Control of SETFA after pre-emergence application (score 0-5)” value in the experiment on Setaria faberi (SETFA) [4] (1000 g/ha) is listed as 4. Also, the “Control of AVEFA after post-emergence application (score 0-5)” value with Avena fatua (AVEFA) [5] (1000 g/ha) was found to be 3. Besides, the “Control of ALOMY after pre-emergence application (score 0-5)” value in [6] (1000 g/ha) was determined as 0. The “Control of TRAZW after pre-emergence application (score 0-5)” value in experiment [7] (1000 g/ha) came out at 0. Further, the “Control of TRAZW after post-emergence application (score 0-5)” value in experiment [8] (1000 g/ha) is given as 0. Further, the “Control of SETFA after post-emergence application (score 0-5)” value in the experiment with Setaria faberi (SETFA) [9] (1000 g/ha) is 4. Further, in experiment [10] (1000 g/ha), the “Control of ECHCG after post-emergence application (score 0-5)” value worked out at 3. For the same compound, in the experiment with Lolium perenne (LOLPE) [11] (1000 g/ha), the “Control of LOLPE after pre-emergence application (score 0-5)” value came out at 0. Further, the “Control of LOLPE after post-emergence application (score 0-5)” value with Lolium perenne (LOLPE) [12] (1000 g/ha) came to 1.
